Tests used:
[1] = target: T1, neurokinin-1 (NK-1) receptor (Homo sapiens, UniProt P25103); assay: NK-1 binding assay, [125I] Substance P competition on U373 cell membranes; details: Bolton Hunter labeled [125I] Substance P displacement
T1 construct: endogenously expresses the neurokinin-1 (NK-1) receptor; endogenous in cells; host or cells: U373 human glioblastoma-astrocytoma cells (membranes)
Experimental: U373 cells, a human glioblastoma-astrocytoma cell line that endogenously expresses the neurokinin-1 (NK-1) receptor, were grown in a monolayer culture at 37° C. in 5% CO2 and fed with Minimum Essential Medium (MEM) supplemented with 10% fetal bovine serum. Membranes were prepared as follows: Cells were washed twice with ice-cold phosphate-buffered saline (pH 7.4) and then incubated for 5 to 10 minutes with ice-cold 10 mM Tris buffer (pH 7.4) containing 5 mM EDTA. Cells were removed from plates, homogenized, and centrifuged at 32,000×g for 20 minutes. The resulting supernatant was discarded, and the pellet resuspended by homogenization in 50 mM Tris buffer (pH 7.4) containing 1 mM EDTA and centrifuged at 32,000×g for 20 minutes. […]
On the day of an experiment the membrane preparation was thawed, homogenized and diluted with NK-1 binding assay buffer to the appropriate concentration. […] The amount of radioligand bound in the presence and absence of competitor was analyzed by plotting (−)log drug concentration versus the amount of radioligand specifically bound. […] Ki values were calculated using the method of Cheng and Prusoff [Cheng, Y.-C. and Prusoff, W. H., Biochemical Pharmacology, Vol. 22, pp. 3099-3108, Pergamon Press (1973)].

[2] = target: T2, human serotonin transporters (Homo sapiens, UniProt P31645); assay: Serotonin transporter binding assay, [3H]-citalopram competition on HEK-hSERT cell membranes; details: 1 nM [3H]-citalopram displacement, read-out: SERT IC50
T2 construct: expressed in transfected cells
Experimental: HEK-293 cells that stably express human serotonin transporters (HEK-hSERT cells) were grown at 37° C. in 5% CO2 as a monolayer in medium consisting of EMEM supplemented with 10% fetal bovine serum and G418 sulfate (500 μg/ml). To prepare membranes for radioligand binding experiments, cells were rinsed twice with phosphate-buffered saline (138 mM NaCl, 4.1 mM KCl, 5.1 mM Na2PO4, 1.5 mM […], 11.1 mM glucose, pH 7.4). Cells were transferred from plates to polypropylene tubes (16×100 mm), centrifuged at 1,200×g for 5 min and were frozen at −80° C. until assay. Following centrifugation, pellets were resuspended by homogenization in buffer consisting of 50 mM Tris (pH 7.7 at 25° C.), 120 mM NaCl and 5 mM KCl and then centrifuged at 32,000×g for 10 min. Following centrifugation, supernatants were discarded and pellets were resuspended in buffer consisting of 50 mM Tris (pH 7.4 at 25° C.), 150 mM NaCl and 5 mM KCl. […] Amount of radioligand bound in the presence and absence of competitor was analyzed by plotting (−)log drug concentration versus the amount of radioligand specifically bound. […] Ki values were calculated using the method of Cheng and Prusoff Cheng and Prusoff [Cheng, Y.-C. and Prusoff, W. H., Biochemical Pharmacology, Vol. 22, pp. 3099-3108, Pergamon Press (1973)].

T1 sequence (P25103 whole entry): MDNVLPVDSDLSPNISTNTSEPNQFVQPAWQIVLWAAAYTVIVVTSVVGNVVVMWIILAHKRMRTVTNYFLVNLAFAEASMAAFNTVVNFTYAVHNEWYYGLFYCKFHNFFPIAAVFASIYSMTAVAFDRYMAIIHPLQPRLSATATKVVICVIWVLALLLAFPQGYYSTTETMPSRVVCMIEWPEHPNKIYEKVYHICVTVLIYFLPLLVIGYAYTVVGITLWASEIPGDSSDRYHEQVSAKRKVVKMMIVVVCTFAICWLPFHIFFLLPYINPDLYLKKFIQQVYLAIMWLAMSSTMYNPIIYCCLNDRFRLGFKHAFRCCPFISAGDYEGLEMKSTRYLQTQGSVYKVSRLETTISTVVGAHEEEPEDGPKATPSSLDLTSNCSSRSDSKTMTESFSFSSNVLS
T2 sequence (P31645 whole entry): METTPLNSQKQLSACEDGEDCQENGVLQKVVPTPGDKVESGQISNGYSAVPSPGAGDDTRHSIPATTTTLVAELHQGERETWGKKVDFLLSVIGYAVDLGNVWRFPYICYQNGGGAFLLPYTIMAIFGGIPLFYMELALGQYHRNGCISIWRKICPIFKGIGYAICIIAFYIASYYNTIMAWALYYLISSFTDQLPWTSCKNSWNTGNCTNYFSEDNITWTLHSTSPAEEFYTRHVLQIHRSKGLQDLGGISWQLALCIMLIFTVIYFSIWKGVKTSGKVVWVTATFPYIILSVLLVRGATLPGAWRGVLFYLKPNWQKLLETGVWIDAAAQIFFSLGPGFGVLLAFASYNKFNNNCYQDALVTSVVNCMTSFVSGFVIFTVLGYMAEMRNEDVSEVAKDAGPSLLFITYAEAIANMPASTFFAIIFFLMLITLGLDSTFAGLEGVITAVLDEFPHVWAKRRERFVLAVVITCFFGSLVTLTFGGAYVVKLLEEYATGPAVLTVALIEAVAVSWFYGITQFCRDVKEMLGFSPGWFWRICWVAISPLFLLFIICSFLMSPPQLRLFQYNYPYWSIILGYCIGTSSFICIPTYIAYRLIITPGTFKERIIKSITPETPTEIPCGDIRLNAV

| Compound | IC50 [1] | IC50 [2] |
| --- | --- | --- |
| FC(F)(F)c1cc(COCC2(c3ccccc3)CCCCNCC2)cc(C(F)(F)F)c1 (stereo not shown) [Example 1, 4-((3,5-bis(trifluoromethyl)benzyloxy)methyl)-4-phenylazocane] | < 20 nM | 20 to 100 nM |
| FC(F)(F)c1cc(COCC2(c3ccccc3)CCCNCCC2)cc(C(F)(F)F)c1 [Example 2, 5-((3,5-bis(trifluoromethyl)benzyloxy)methyl)-5-phenylazocane] | < 20 nM | 20 to 100 nM |

Reference: patent US7494986B2, “Cycloalkylamine derivatives as NK-1/SSRI antagonists” (Bristol-Myers Squibb Company, priority 2004, dated 2009)
